Source: US20240251792A1, “WEED CONTROL METHOD” (SYNGENTA CROP PROTECTION AG, priority 2021, published 2024)
Read-outs that look alike come from different tables or passages of the source.

Assays:
Type in all cases: in vivo
weeds and/or crops = experiment: Post-emergence biological efficacy (Table 4); conditions: 312 h, 1000 g/ha, evaluated after 13 days
Procedure: (§1) Seeds of weeds and/or crops were sown in standard soil in pots. After cultivation for 14 days under controlled conditions in a glasshouse (at 24/19° C., day/night; 16 hours light), the plants were sprayed with an aqueous spray solution derived from the formulation of the technical active ingredient in a small amount of acetone and a special solvent and emulsifier mixture referred to as F50 (11.12% Emulsogen EL360 TM+44.44% N-methylpyrrolidone+44.44% Dowanol DPM glycol ether), to create a 50 g/l solution which was then diluted using 0.2% Genapol X080 as diluent to give the desired final dose of test compound.
(§2) The test plants were then grown under controlled conditions in the glasshouse (at 24/18° C., day/night; 15 hours light; 50% humidity) and watered twice daily. After 13 days the test was evaluated (100=total damage to plant; 0=no damage to plant).

STEME = experiment: Pre-emergence biological efficacy (Table 3); conditions: 312 h, after 13 days, read-out: evaluation (100=total damage to plant; 0=no damage to plant)
Procedure: as §1, with “one day” for “14 days”, “AMA” for “F50”
as §2

AMARE = experiment: Pre-emergence biological efficacy (Table 3); conditions: Amaranthus retroflexus, 312 h, 1000 g/ha, after 13 days, read-out: evaluation (100=total damage to plant; 0=no damage to plant)
Procedure: as §1, with “one day” for “14 days”, “AMA” for “F50”
as §2

ABUTH = experiment: Pre-emergence biological efficacy (Table 3); conditions: Abutilon theophrasti, 312 h, after 13 days, read-out: evaluation (100=total damage to plant; 0=no damage to plant)
Procedure: as §1, with “one day” for “14 days”, “AMA” for “F50”
as §2

IPOHE = experiment: Pre-emergence biological efficacy (Table 3); conditions: Ipomoea hederacea, 312 h, 1000 g/ha, after 13 days, read-out: evaluation (100=total damage to plant; 0=no damage to plant)
Procedure: as §1, with “one day” for “14 days”, “AMA” for “F50”
as §2

ECHCG = experiment: Pre-emergence biological efficacy (Table 3); conditions: Echinochloa crus-galli, 312 h, 1000 g/ha, after 13 days, read-out: evaluation (100=total damage to plant; 0=no damage to plant)
Procedure: as §1, with “one day” for “14 days”, “AMA” for “F50”
as §2

ZEAMX = experiment: Pre-emergence biological efficacy (Table 3); conditions: 312 h, 1000 g/ha, after 13 days, read-out: evaluation (100=total damage to plant; 0=no damage to plant)
Procedure: as §1, with “one day” for “14 days”, “AMA” for “F50”
as §2

[1] = STEME, read-out: damage to plant STEME (100=total damage; 0=no damage)
[2] = ZEAMX, read-out: damage to plant ZEAMX (100=total damage; 0=no damage)
[3] = Abutilon theophrasti, ABUTH, read-out: damage to plant ABUTH (100=total damage; 0=no damage)
[4] = Amaranthus retroflexus, AMARE, read-out: damage to plant AMARE (100=total damage; 0=no damage)
[5] = Echinochloa crus-galli, ECHCG, read-out: damage to plant ECHCG (100=total damage; 0=no damage)
[6] = Ipomoea hederacea, IPOHE, read-out: damage to plant IPOHE (100=total damage; 0=no damage)

| SMILES | pest or weed control at 1000 g/ha (weeds and/or crops; [1]) [%] | pest or weed control at 1000 g/ha (weeds and/or crops; [2]) [%] | pest or weed control at 1000 g/ha (weeds and/or crops; [3]) [%] | pest or weed control at 1000 g/ha (weeds and/or crops; [4]) [%] | pest or weed control at 1000 g/ha (weeds and/or crops; [5]) [%] | pest or weed control at 1000 g/ha (weeds and/or crops; [6]) [%] | pest or weed control at 1000 g/ha (STEME) [%] | pest or weed control at 1000 g/ha (AMARE) [%] | pest or weed control at 1000 g/ha (ABUTH) [%] | pest or weed control at 1000 g/ha (IPOHE) [%] | pest or weed control at 1000 g/ha (ECHCG) [%] | plant injury at 1000 g/ha (ZEAMX) [%] |
| --- | --- | --- | --- | --- | --- | --- | --- | --- | --- | --- | --- | --- |
| O=C(O)C(F)(F)c1c(F)ccc2cccnc12 [Compound 1-406, 2,2-Difluoro-2-(7-fluoro-8-quinolyl)acetic acid] | 70 | 40 | 70 | 80 | 20 | 80 | 50 | 80 | 60 | 60 | 0 | 10 |
| COc1c(F)ccc(F)c1C(F)(F)C(=O)O [Compound 1-314, 2-(3,6-Difluoro-2-methoxyphenyl)-2,2-difluoroacetic acid] | 0 | 10 | 0 | 60 | 0 | 10 | 0 | 0 | 0 | 0 | 0 | 0 |
| Nc1ccc(Cl)c(C(F)(F)C(=O)O)c1Cl [Compound 1-236, 2-(3-Amino-2,6-dichloro-phenyl)-2,2-difluoro-acetic acid] | 10 | 10 | 0 | 30 | 0 | 30 | 0 | 20 | 0 | 0 | 0 | – |
| O=C(O)C(F)(F)c1cc(Cl)c(Cl)cc1O [Compound 1-298, 2-(4,5-Dichloro-2-hydroxy-phenyl)-2,2-difluoro-acetic acid] | 0 | 20 | 10 | 10 | – | 10 | 0 | 0 | 0 | 0 | – | 0 |
| CCOC(=O)C(F)(F)c1c(Cl)cccc1[N+](=O)[O-] [Compound 3-67, Ethyl 2-(2-chloro-6-nitrophenyl)-2,2-difluoroacetate] | 0 | 20 | 10 | 50 | – | 50 | 10 | 10 | 0 | 20 | – | 0 |
| O=C(O)C(F)(F)c1c(Cl)cccc1[N+](=O)[O-] [Compound 1-67, 2-(2-Chloro-6-nitrophenyl)-2,2-difluoroacetic acid] | 10 | 10 | 10 | 30 | – | 60 | 0 | 0 | 0 | 30 | – | 10 |
| CCOC(=O)C(F)(F)c1c(F)ccc(F)c1O [Compound 3-297, Ethyl 2-(3,6-difluoro-2-hydroxyphenyl)-2,2-difluoroacetate] | 0 | 20 | 10 | 10 | – | 10 | 0 | 0 | 0 | 0 | – | 0 |
